Where two headings read alike, the source gives them in different places.
Columns and labels:
[1] = system: T-tropic HIV; conditions: patients dual tropic or with only T-tropic virus; cited from earlier work
[2] = Compound cytotoxicity in HOS cells in the absence of virus (CellTiter-Glo); assay type: cell-based; conditions: human, no virus, read-out: Cytotox (pIC50) (converted)
Protocol: Compounds were profiled against two HIV-1 viruses, the M-tropic (CCR5 utilizing) Ba-L strain and the T-tropic (CXCR4 utilizing) IIIB strain. Both viruses were propagated in human peripheral blood lymphocytes. Compounds were tested for there ability to block infection of the HOS cell line (expressing hCXCR4/hCCR5/hCD4/pHIV-LTR-luciferase) by either HIV-1 Ba-L or HIV-1 IIIB. Compound cytotoxicity was also examined in the absence of virus addition.
HOS cells (expressing hCXCR4/hCCR5/hCD4/pHIV-LTR-luciferase) were harvested and diluted in Dulbeccos modified Eagles media supplemented with 2% FCS and non-essential amino acid to a concentration of 60,000 cells/ml. The cells were plated into 96-well plates (100 ul per well) and the plates were placed in a tissue culture incubator (37° C.; 5% CO2/95% air) for a period of 24 h.
Subsequently, 50 ul of the desired drug solution (4 times the final concentration) was added to each well and the plates were returned to the tissue culture incubator (37° C.; 5% CO2/95% air) for 1 h. Following this incubation 50 ul of diluted virus was added to each well (approximately 2 million RLU per well of virus). The plates were returned to the tissue culture incubator (37° C.; 5% CO2/95% air) and were incubated for a further 96 h.
Following this incubation the endpoint for the virally infected cultures was quantified following addition of Steady-Glo Luciferase assay system reagent (Promega, Madison, Wis.). Cell viability or non-infected cultures was measured using a CellTiter-Glo luminescent cell viability assay system (Promega, Madison, Wis.). All luminescent readouts are performed on a Topcount luminescence detector (Packard, Meridien, Conn.).

[3] = system: HIV-1 gp160 (HXB2 strain) mediated cell/cell fusion; assay: Cell/cell fusion assay (HOS hCXCR4/hCCR5/hCD4/pHIV-LTR-luciferase cells with HEK-293 cells expressing HIV-1 tat, rev, gp160), luciferase readout; assay type: cell-based; conditions: Homo sapiens, HEK293, 24 h, read-out: Fusion assay (pIC50) (converted)
Description: The complete coding sequences of HIV-1 tat (GenBank Accession No. X07861) and rev (GenBank Accession No. M34378) were cloned into pcDNA3.1 expression vectors containing G418 and hygromycin resistance genes, respectively. The complete coding sequence of the HIV-1 (HXB2 strain) gp160 envelope gene (nucleotide bases 6225-8795 of GenBank Accession No. K03455) was cloned into plasmid pCRII-TOPO. The three HIV genes were additionally inserted into the baculovirus shuttle vector, pFastBacMam1, under the transcriptional control of the CMV promoter. A construction of the pHIV-1 LTR containing mutated NFkB sequences linked to the luciferase reporter gene was prepared by digesting pcDNA3.1, containing the G418 resistance gene, with Nru I and Bam HI to remove the CMV promoter. LTR-luc was then cloned into the Nru I/Bam HI sites of the plasmid vector. Plasmid preparations were performed after the plasmids were amplified in Escherichia coli strain DH5-alpha. The fidelity of the inserted sequences was confirmed by double-strand nucleotide sequencing using an ABI Prism Model 377 automated sequencer.
Recombinant BacMam baculoviruses were constructed from pFastBacMam shuttle plasmids by using the bacterial cell-based Bac-to-Bac system. Viruses were propagated in Sf9 (Spodoptera frugiperda) cells cultured in Hink's TNM-FH Insect media supplemented with 10% (v/v) fetal bovine serum and 0.1% (v/v) pluronic F-68 according to established protocols.
Human osteosarcoma (HOS) cells that naturally express human CXCR4 were transfected with human CCR5, human CD4 and the pHIV-LTR-luciferase plasmid using FuGENE 6 transfection reagent. Single cells were isolated and grown under selection condition in order to generate a stable HOS (hCXCR4/hCCR5/hCD4/pHIV-LTR-luciferase) clonal cell line. The cells were maintained in Dulbeccos modified Eagles media supplemented with 10% fetal calf serum (FCS), G418 (400 ug/ml), puromycin (1 ug/ml), mycophenolic acid (40 ug/ml), xanthine (250 ug/ml) and hypoxanthine (13.5 ug/ml) to maintain a selection pressure for cells expressing the LTR-luciferase, hCCR5 and hCD4, respectively. Human embryonic kidney (HEK-293) cells stably transfected to express the human macrophage scavenging receptor (Class A, type 1; GenBank Accession No. D90187), were maintained in DMEM/F-12 media (1:1) supplemented with 10% FCS and 1.5 ug/ml puromycin. The expression of this receptor by the HEK-293 cells enhances their ability to stick to tissue culture treated plasticware.
HEK-293 cells were harvested using enzyme-free cell dissociation buffer. The cells were resuspended in DMEM/F-12 media supplemented with 10% FCS and 1.5 ug/ml and counted. Tranductions were performed by direct addition of BacMam baculovirus containing insect cell media to cells. The cells were simultaneously transduced with BacMam baculovirus expressing HIV-1 tat, HIV-1 rev and HIV-1 gp160 (from the HXB2 HIV strain). Routinely an MOI of 10 of each virus was added to the media containing the cells. 2 mM butyric acid was also added to the cells at this stage to increase protein expression in transduced cells. The cells were subsequently mixed and seeded into a flask at 30 million cells per T225. The cells were incubated at 37° C., 5% CO2, 95% humidity for 24 h to allow for protein expression.
HEK and HOS cells were harvested in DMEM/F-12 media containing 2% FCS and DMEM media containing 2% FCS, respectively, with no selection agents added. Compounds were plated as 1 ul spots in 100% DMSO on a 96-well CulturPlate plates. HOS cells (50 ul) were added first to the wells, followed immediately by the HEK cells (50 ul). The final concentration of each cell type was 20,000 cells per well. Following these additions, the cells were returned to a tissue culture incubator (37° C.; 5% CO2/95% air) for an additional 24 h.
Following the 24 h incubation, total cellular luciferase activity was measured using the LucLite Plus assay kit (Packard, Meridien, Conn.). […]

[4] = system: HIV-1 IIIB; assay: HOS HIV-1 infectivity assay; assay type: cell-based
Method in brief: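 Blockade of infection is measured in HOS cells carrying hCD4, hCXCR4, hCCR5 and an HIV-LTR-driven luciferase, using virus grown in human peripheral blood lymphocytes. After 96 h, Steady-Glo luminescence reports infection, while CellTiter-Glo gauges cytotoxicity without virus.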

[5] = molecular target: T1, CXCR4 receptor (Homo sapiens, UniProt P61073); assay: Functional FLIPR assay (block of SDF-1 alpha induced [Ca2+]i change); assay type: cell-based; conditions: HEK-293 cells, human CXCR4 BacMam and Gqi5 BacMam, read-out: Functional assay (pIC50) (converted)
T1 construct: expressed in transfected cells; host or cells: HEK-293 cells (stably expressing human macrophage scavenger receptor) transduced with human CXCR4 BacMam and Gqi5 BacMam
T1 sequence (P61073 whole entry): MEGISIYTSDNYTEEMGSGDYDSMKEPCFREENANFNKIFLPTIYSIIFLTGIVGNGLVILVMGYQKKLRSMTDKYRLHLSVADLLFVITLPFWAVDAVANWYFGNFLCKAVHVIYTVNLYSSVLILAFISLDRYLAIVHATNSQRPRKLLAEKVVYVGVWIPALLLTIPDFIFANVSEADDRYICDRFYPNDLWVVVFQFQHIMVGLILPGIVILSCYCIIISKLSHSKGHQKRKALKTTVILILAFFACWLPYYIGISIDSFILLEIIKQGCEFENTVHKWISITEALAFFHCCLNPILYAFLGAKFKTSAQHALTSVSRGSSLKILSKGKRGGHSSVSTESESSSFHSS
Protocol: Human embryonic kidney (HEK-293) cells were maintained and harvested as described above. Cells were plated in 96-well, black clear bottom, poly-lysine coated plates at a concentration of 40,000 cells per well in a final volume of 100 ul containing human CXCR4BacMam (MOI=25) and Gqi5 BacMam (MOI=12.5). The cells were incubated at 37° C., 5% CO2, 95% humidity for 24 h to allow for protein expression.
After the required incubation time the cells were washed once with 50 ul of fresh serum-free DMEM/F12 media containing probenicid. 50 ul of dye solution was then added to the cells (Calcium Plus Assay Kit Dye; Molecular Devices) was dissolved in 200 ml of the above probenicid/BSA containing media and incubated for 1 h. Cell plates were transferred to a Fluorometric Imaging Plate Reader (FLIPR). Upon addition the effect of the compounds on the change in [Ca^2+]i was examined to determine if the compounds were agonists or antagonists (ability to block SDF-1 alpha activity) at the CXCR4 receptor. IC50 values are determined and pKb values are calculated using the Leff and Dougall equation: KB═IC50/((2+([agonist]/EC50̂b)̂1/b−1) Where IC50 is that defined by the antagonist concentration-response curve [agonist)] is the EC80 concentration of agonist used EC50 is that defined by the agonist concentration-response curve b is the slope of the agonist concentration-response curve.

[6] = Human immunodeficiency virus 1, IIIB, as determined by the infectivity assay, strain not stated in Table 2, read-out: Activity Level
[7] = Human immunodeficiency virus 1, T-tropic (CXCR4 utilizing) IIIB strain, HOS cells, 96 h, read-out: HOS (3B)

Row | SMILES | T-tropic HIV viral load [1] | IC50 at 96 h [2] | IC50 [3] | IC50 [4, 6] | IC50 [4, 7] | IC50 [5]
1 | c1cc(CN2CCCNCCNCCCNCC2)ccc1CN1CCCNCCNCCCNCC1 [AMD-3100] | significantly reduce T-tropic HIV viral load | – | – | – | – | –
2 | NCCCn1c(CN(Cc2ccccc2)C2CCCc3cccnc32)nc2ccccc21 (centres unmarked) [Example 21, N-{[1-(3-Aminopropyl)-1H-benzimidazol-2-yl]methyl}-N-(phenylmethyl)-5,6,7,8-tetrahydro-8-quinolinamine] | – | > 100 µM | 1.32 µM | 0.5 to 10 µM | 0.595 µM | 0.288 µM
3 | CC(C)CCN(Cc1nc2ccccc2n1CCCN)C1CCCc2cccnc21 (centres unmarked) [Example 22, N-{[1-(3-Aminopropyl)-1H-benzimidazol-2-yl]methyl}-N-(3-methylbutyl)-5,6,7,8-tetrahydro-8-quinolinamine] | – | > 100 µM | 0.158 µM | 0.1 to 0.5 µM | 0.113 µM | 0.0562 µM
4 | CN1CCCCC1CCn1c(CN(C)C2CCCc3cccnc32)nc2ccccc21 (centres unmarked) [Example 23e, N-Methyl-N-({1-[2-(1-methyl-2-piperidinyl)ethyl]-1H-benzimidazol-2-yl}methyl)-5,6,7,8-tetrahydro-8-quinolinamine] | – | > 100 µM | 0.038 µM | < 0.1 µM | 0.033 µM | 0.0174 µM
5 | CN(C)C/C=C\Cn1c(CN(C)C2CCCc3cccnc32)nc2ccccc21 (centres unmarked) [Example 24, N-({1-[(2Z)-4-(Dimethylamino)-2-buten-1-yl]-1H-benzimidazol-2-yl}methyl)-N-methyl-5,6,7,8-tetrahydro-8-quinolinamine] | – | > 100 µM | 0.0204 µM | < 0.1 µM | 0.025 µM | 0.0155 µM
6 | CN1CCOC(Cn2c(CN(C)C3CCCc4cccnc43)nc3ccccc32)C1 (centres unmarked) [Example 25, N-Methyl-N-({1-[(4-methyl-2-morpholinyl)methyl]-1H-benzimidazol-2-yl}methyl)-5,6,7,8-tetrahydro-8-quinolinamine] | – | > 100 µM | 0.038 µM | 0.1 to 0.5 µM | 0.185 µM | 0.0295 µM
